Data from patent publication US20110045101A1, “FUNGICIDAL SUBSTITUTED AZOLES” (E.I. Du Pont De Nemours and Company, priority 2009, published 2011).
Marks after values point to notes of the source that are not given here.

Assays:
Assay type in all cases: in vivo
Details in all cases: 100 = 100% disease control
Botrytis cinerea = test: Test C: tomato Botrytis on tomato seedlings, sprayed the day before inoculation, visual disease rating
Summary of the method: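 Disease ratings refer to tomato seedlings treated by run-off spraying with compound suspensions, mostly 200 ppm (500 g/ha equivalent) and in marked cases 40 ppm. Carrier: acetone/purified water 50/50 with 250 ppm polyhydric alcohol ester surfactant, after predissolving in acetone.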

[1] = tested on: Puccinia recondita f. sp. tritici; test: Test I: wheat leaf rust on wheat seedlings, sprayed the day before inoculation, visual disease rating
Summary of the method: (§1)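 Acetone solution (3% of final volume) of each compound is suspended in 50/50 acetone/water with 250 ppm Trem® 014. Plants are sprayed to run-off at 200 ppm, equivalent to 500 g/ha, or at 40 ppm for starred values.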

Septoria nodorum = test: Test F: wheat glume blotch on wheat seedlings, sprayed the day before inoculation, visual disease rating
Summary of the method: as §1

Septoria tritici = test: Test G: wheat leaf blotch on wheat seedlings, sprayed the day before inoculation, visual disease rating
Summary of the method: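 Disease was rated visually after Septoria tritici inoculation, 48 h saturated incubation at 24°C and 19 days in a 20°C growth chamber. Inoculation followed one day after run-off spraying of seedlings with compound at 200 ppm (≈500 g/ha) or, where marked, 40 ppm, formulated in acetone/water with surfactant.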

[2] = tested on: Puccinia recondita f. sp. tritici; test: Test H: wheat leaf rust, test suspension sprayed after inoculation of wheat seedlings, visual disease rating
From the text: General protocol for preparing test suspensions for Tests A-J: The test compounds were first dissolved in acetone in an amount equal to 3% of the final volume and then suspended at the desired concentration (in ppm) in acetone and purified water (50/50 mix) containing 250 ppm of the surfactant Trem® 014 (polyhydric alcohol esters). The resulting test suspensions were then used in tests A-J. Spraying a 200 ppm test suspension to the point of run-off on the test plants was the equivalent of a rate of 500 g/ha. […] Wheat seedlings were inoculated with a spore suspension of Puccinia recondita f. sp. tritici (the causal agent of wheat leaf rust) and incubated in a saturated atmosphere at 20° C. for 24 h, and then moved to a growth chamber at 20° C. for 2 days. […] A dash (-) indicates no test results. All results are for 200 ppm except where followed by “*”, which indicates 40 ppm.

[3] = tested on: Erysiphe graminis f. sp. tritici; test: Test J: wheat powdery mildew on wheat seedlings, sprayed the day before inoculation, visual disease rating
Summary of the method: as §1

Alternaria solani = test: Test D: tomato early blight, sprayed the day before inoculation, visual disease rating
Summary of the method: as §1

[4] = 40 ppm (marked *), 0 = no control
[5] = 200 ppm, 0 = no control relative to controls

SMILES	Test C disease control rating (Botrytis cinerea; [5]) [%]	Test I disease control rating [1, 5] [%]	Test F disease control rating (Septoria nodorum; [5]) [%]	Test G disease control rating (Septoria tritici; [5]) [%]	Test H disease control rating [2, 5] [%]	Test J disease control rating [3, 5] [%]	Test D disease control rating (Alternaria solani; [5]) [%]	also measured
COc1cc(F)c(-n2c(Cl)nc(C)c2-c2cccc(F)c2)c(F)c1 [compound 686]	–	–	–	–	–	–	–	Test C disease control rating (Botrytis cinerea; 40 ppm (marked *)): 100* %; Test I disease control rating ([1]; 40 ppm (marked *)): 99* %; Test F disease control rating (Septoria nodorum; 40 ppm (marked *)): 82* %; Test G disease control rating (Septoria tritici; 40 ppm (marked *)): 98* %; Test H disease control rating ([2]; 40 ppm (marked *)): 98* %; Test J disease control rating ([3]; 40 ppm (marked *)): 98* %; Test D disease control rating (Alternaria solani; 40 ppm (marked *)): 100* %
COc1cc(F)c(-n2c(Cl)nc(CCl)c2-c2ccc(Cl)cc2)c(F)c1 [compound 397]	–	–	–	–	–	–	–	Test C disease control rating (Botrytis cinerea; [4]): 100* %; Test I disease control rating [1, 4]: 88* %; Test F disease control rating (Septoria nodorum; [4]): 0* %; Test G disease control rating (Septoria tritici; [4]): 94* %; Test H disease control rating [2, 4]: 0* %; Test J disease control rating [3, 4]: 13* %; Test D disease control rating (Alternaria solani; [4]): 98* %
COc1cc(F)c(-c2c(Cl)nc(Cl)n2Cc2ccc(C)cc2)c(F)c1 [compound 291]	–	–	–	–	–	–	–	Test C disease control rating (Botrytis cinerea; 200 ppm, 0 = no control): 99%; Test I disease control rating ([1]; 200 ppm, 0 = no control): 98%; Test F disease control rating (Septoria nodorum; 200 ppm, 0 = no control): 0%; Test G disease control rating (Septoria tritici; 200 ppm, 0 = no control): 94%; Test H disease control rating ([2]; 200 ppm, 0 = no control): 6%; Test J disease control rating ([3]; 200 ppm, 0 = no control): 94%; Test D disease control rating (Alternaria solani; 200 ppm, 0 = no control): 80%
COc1cc(F)c(-c2c(Cl)nc(Br)n2-c2ccc(C(F)(F)F)nc2)c(F)c1 [Compound 707, 5-[2-bromo-4-chloro-5-(2,6-difluoro-4-methoxyphenyl)-1H-imidazol-1-yl]-2-(trifluoromethyl)pyridine]	–	–	–	–	–	–	–	pest or weed control at 200 ppm (Botrytis cinerea; Botrytis cinerea, 120 h, 200 ppm, 0 = no control relative to controls): 100%; pest or weed control at 200 ppm ([1]; Puccinia recondita, 168 h, 200 ppm, 0 = no control relative to controls): 100%; pest or weed control at 200 ppm (Septoria nodorum; Parastagonospora nodorum, 264 h, 200 ppm, 0 = no control relative to controls): 100%; pest or weed control at 200 ppm (Septoria tritici; Zymoseptoria tritici, 504 h, 200 ppm, 0 = no control relative to controls): 99%; pest or weed control at 200 ppm ([2]; Puccinia recondita, 96 h, 200 ppm, 0 = no control relative to controls): 67%; pest or weed control at 200 ppm ([3]; Blumeria graminis, 168 h, 200 ppm, 0 = no control relative to controls): 100%; pest or weed control at 200 ppm (Alternaria solani; Alternaria solani, 168 h, 200 ppm, 0 = no control relative to controls): 100%
COc1cc(F)c(-c2c(Cl)nc(Br)n2-c2cccc(OC(F)F)c2)c(F)c1 [compound 545]	100	100	98	99	27	99	100	–
CCOc1ccc(F)c(-c2c(Cl)nc(Br)n2-c2cccc(F)c2)c1F [compound 663]	100	99	99	99	54	100	99	–
COc1cc(F)c(-c2cnc(Cl)n2-c2ccc(C(F)(F)F)nc2)c(F)c1 [compound 699]	100	41	0	99	0	99	99	–
CN(C)c1ncn(-c2cccc(F)c2)c1-c1c(F)cc(F)cc1F [compound 363]	99	0	0	53	9	0	0	–
N#Cc1ccc(F)c(-c2cnc(Cl)n2-c2ccc(Cl)nc2)c1F [compound 697]	100	19	0	98	8	93	91	–
COc1cc(F)c(-c2c(Cl)nc(Cl)n2-c2ccc(OC(F)F)cc2)c(F)c1 [compound 566]	100	100	100	97	97	100	100	–
Cc1nc(Cl)c(-c2c(F)cccc2F)n1-c1ccc2c(c1)OC(F)(F)O2 [compound 608]	–	–	–	–	–	–	–	Test C disease control rating (Botrytis cinerea; 40 ppm (marked *)): 17* %; Test I disease control rating ([1]; 40 ppm (marked *)): 41* %; Test F disease control rating (Septoria nodorum; 40 ppm (marked *)): 0* %; Test G disease control rating (Septoria tritici; 40 ppm (marked *)): 4* %; Test H disease control rating ([2]; 40 ppm (marked *)): 7* %; Test J disease control rating ([3]; 40 ppm (marked *)): 0* %; Test D disease control rating (Alternaria solani; 40 ppm (marked *)): 0* %
Fc1cccc(-n2cnc(Cl)c2-c2c(F)cc(F)cc2F)c1 [compound 362]	100	83	0	86	0	49	99	–
CCOc1cc(F)c(-c2c(Cl)ncn2-c2cccc(F)c2)c(F)c1 [compound 703]	100	98	100	99	39	97	100	–
COc1ccc(F)c(-c2c(Cl)nc(C)n2-c2cccc(F)c2)c1F [compound 315]	99	100	100	95	86	100	100	–
Cc1nc(C)n(-c2ccc(F)cc2Cl)c1-c1ccc(Cl)cc1 [compound 307]	100	97	0	97	11	99	99	–
COc1cc(OC)cc(-n2c(Cc3ccc(F)cc3F)cnc2C)c1 [compound 476]	0	78	0	59	0	47	0	–
Cc1nc(Cl)c(-c2c(F)cccc2F)n1-c1ccc(Cl)nc1 [compound 666]	100	100	99	99	100	100	100	–
